In ChEMBL document CHEMBL1201861, “Genomics of Drug Sensitity in Cancer screening data, Wellcome Trust Sanger Institute”:

How the values were obtained:
[1] = test system: MEL-HO; assay: cells; type: functional, cell-based; details: Homo sapiens
Description: SANGER: Inhibition of human MEL-HO cell growth in a cell viability assay.

[2] = test system: HCC 2998; assay: cells; type: functional, cell-based; details: Homo sapiens;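 note: growth inhibition of human HCC2998 cells, measured with a cell viability read-out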
Description: SANGER: Inhibition of human HCC2998 cell growth in a cell viability assay.

[3] = test system: TE-441-T; assay: cells; type: functional, cell-based; details: Homo sapiens
Description: SANGER: Inhibition of human TE-441-T cell growth in a cell viability assay.

[4] = test system: A253 cell line; assay: cells; type: functional, cell-based; details: Homo sapiens;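 note: growth inhibition of A253 cells, read out with a cell viability assay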
Description: SANGER: Inhibition of human A253 cell growth in a cell viability assay.

[5] = test system: CAL-120; assay: cells; type: functional, cell-based; details: Homo sapiens;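 note: cell growth inhibition, read out as cell viability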
Description: SANGER: Inhibition of human CAL-120 cell growth in a cell viability assay.

[6] = test system: LB996-RCC; assay: cells; type: functional, cell-based; details: Homo sapiens
Description: SANGER: Inhibition of human LB996-RCC cell growth in a cell viability assay.

[7] = test system: BT-20; assay: cells; type: functional, cell-based; details: Homo sapiens;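 note: cell viability assay measuring suppression of growth in human BT-20 cells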
Description: SANGER: Inhibition of human BT-20 cell growth in a cell viability assay.

[8] = test system: HT-1080; assay: cells; type: functional, cell-based; details: Homo sapiens
Description: SANGER: Inhibition of human HT-1080 cell growth in a cell viability assay.

[9] = test system: HPAF-II; assay: cells; type: functional, cell-based; details: Homo sapiens;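 note: growth inhibition of HPAF-II cells, read out with a cell viability assay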
Description: SANGER: Inhibition of human HPAF-II cell growth in a cell viability assay.

[10] = test system: DG-75; assay: cells; type: functional, cell-based; details: Homo sapiens;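 note: growth inhibition of DG-75 cells, read out with a cell viability assay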
Description: SANGER: Inhibition of human DG-75 cell growth in a cell viability assay.

[11] = test system: CHP-126; assay: cells; type: functional, cell-based; details: Homo sapiens
Description: SANGER: Inhibition of human CHP-126 cell growth in a cell viability assay.

[12] = test system: SBC-5; assay: cells; type: functional, cell-based; details: Homo sapiens;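 note: cell viability assay read-out, IC50 is the concentration that inhibits growth of the cells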
Description: SANGER: Inhibition of human SBC-5 cell growth in a cell viability assay.

[13] = test system: GP5d; assay: cells; type: functional, cell-based; details: Homo sapiens;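 note: growth inhibition of human GP5d cells, read out with a cell viability assay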
Description: SANGER: Inhibition of human GP5d cell growth in a cell viability assay.

[14] = test system: NCI-H2171; assay: cells; type: functional, cell-based; details: Homo sapiens;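 note: growth inhibition of human NCI-H2171 cells, read out by a cell viability assay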
Description: SANGER: Inhibition of human NCI-H2171 cell growth in a cell viability assay.

[15] = test system: DMS-153; assay: cells; type: functional, cell-based; details: Homo sapiens
Description: SANGER: Inhibition of human DMS-153 cell growth in a cell viability assay.

[16] = test system: KMS-12-PE; assay: cells; type: functional, cell-based; details: Homo sapiens;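 note: growth inhibition of human KMS-12-PE cells, measured with a cell viability assay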
Description: SANGER: Inhibition of human KMS-12-PE cell growth in a cell viability assay.

[17] = test system: ME-180; assay: cells; type: functional, cell-based; details: Homo sapiens;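 note: cell viability assay measuring growth inhibition of ME-180 cells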
Description: SANGER: Inhibition of human ME-180 cell growth in a cell viability assay.

[18] = test system: YAPC; assay: cells; type: functional, cell-based; details: Homo sapiens;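 note: growth inhibition of YAPC cells, measured with a cell viability assay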
Description: SANGER: Inhibition of human YAPC cell growth in a cell viability assay.

[19] = test system: BPH-1; assay: cells; type: functional, cell-based; details: Homo sapiens;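 note: cell viability assay measuring growth inhibition of human BPH-1 cells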
Description: SANGER: Inhibition of human BPH-1 cell growth in a cell viability assay.

[20] = test system: CHP-212; assay: cells; type: functional, cell-based; details: Homo sapiens
Description: SANGER: Inhibition of human CHP-212 cell growth in a cell viability assay.

[21] = test system: Ca9-22; assay: cells; type: functional, cell-based; details: Homo sapiens;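 note: growth inhibition of Ca9-22 cells, read out with a cell viability assay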
Description: SANGER: Inhibition of human Ca9-22 cell growth in a cell viability assay.

[22] = test system: NCI-H1573; assay: cells; type: functional, cell-based; details: Homo sapiens;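 note: growth inhibition of NCI-H1573 cells, read out with a cell viability assay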
Description: SANGER: Inhibition of human NCI-H1573 cell growth in a cell viability assay.

[23] = test system: HuCCT-1; assay: cells; type: functional, cell-based, HuCCT1; details: Homo sapiens;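 note: growth inhibition of HuCCT-1 cells, read out by a cell viability assay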
Description: SANGER: Inhibition of human HuCCT1 cell growth in a cell viability assay.

[24] = test system: LB647-SCLC; assay: cells; type: functional, cell-based; details: Homo sapiens;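 note: cell growth inhibition, read out by a viability assay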
Description: SANGER: Inhibition of human LB647-SCLC cell growth in a cell viability assay.

[25] = test system: EHEB; assay: cells; type: functional, cell-based; details: Homo sapiens;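 note: growth inhibition of human EHEB cells, read out with a cell viability assay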
Description: SANGER: Inhibition of human EHEB cell growth in a cell viability assay.

[26] = test system: NCI-H748; assay: cells; type: functional, cell-based; details: Homo sapiens;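 note: growth inhibition of NCI-H748 cells, measured by a cell viability assay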
Description: SANGER: Inhibition of human NCI-H748 cell growth in a cell viability assay.

[27] = test system: SNU-423; assay: cells; type: functional, cell-based; details: Homo sapiens
Description: SANGER: Inhibition of human SNU-423 cell growth in a cell viability assay.

[28] = test system: EFM-19; assay: cells; type: functional, cell-based; details: Homo sapiens;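 note: growth inhibition of human EFM-19 cells, measured in a cell viability assay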
Description: SANGER: Inhibition of human EFM-19 cell growth in a cell viability assay.

[29] = test system: MCF7; assay: cells; type: functional, cell-based; details: Homo sapiens;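 note: growth inhibition of human MCF7 cells, read out with a cell viability assay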
Description: SANGER: Inhibition of human MCF7 cell growth in a cell viability assay.

[30] = test system: CHL-1; assay: cells; type: functional, cell-based; details: Homo sapiens;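 note: cell growth inhibition, read out with a cell viability assay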
Description: SANGER: Inhibition of human CHL-1 cell growth in a cell viability assay.

[31] = test system: HEC-1; assay: cells; type: functional, cell-based; details: Homo sapiens;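 note: growth inhibition of the cell line, read out with a cell viability assay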
Description: SANGER: Inhibition of human HEC-1 cell growth in a cell viability assay.

[32] = test system: PANC-08-13; assay: cells; type: functional, cell-based; details: Homo sapiens
Description: SANGER: Inhibition of human PANC-08-13 cell growth in a cell viability assay.

[33] = test system: EFO-21; assay: cells; type: functional, cell-based; details: Homo sapiens;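 note: growth inhibition of EFO-21 cells measured with a viability assay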
Description: SANGER: Inhibition of human EFO-21 cell growth in a cell viability assay.

[34] = test system: NCI-H2081; assay: cells; type: functional, cell-based; details: Homo sapiens;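 note: growth inhibition of human NCI-H2081 cells, read out with a cell viability assay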
Description: SANGER: Inhibition of human NCI-H2081 cell growth in a cell viability assay.

[35] = test system: NCI-H2342; assay: cells; type: functional, cell-based; details: Homo sapiens;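 note: growth inhibition of the cancer cell line, determined with a cell viability assay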
Description: SANGER: Inhibition of human NCI-H2342 cell growth in a cell viability assay.

[36] = test system: SW-620; assay: cells; type: functional, cell-based; details: Homo sapiens;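 note: growth inhibition of human SW-620 cells, measured by a cell viability assay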
Description: SANGER: Inhibition of human SW620 cell growth in a cell viability assay.

[37] = test system: IGROV-1; assay: cells; type: functional, cell-based; details: Homo sapiens;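 note: reduction of IGROV-1 cell growth, read out with a viability assay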
Description: SANGER: Inhibition of human IGROV-1 cell growth in a cell viability assay.

[38] = test system: DU-145; assay: cells; type: functional, cell-based; details: Homo sapiens
Description: SANGER: Inhibition of human DU-145 cell growth in a cell viability assay.

[39] = test system: NCI-H1792; assay: cells; type: functional, cell-based; details: Homo sapiens;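 note: growth inhibition of human NCI-H1792 cells, read out as cell viability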
Description: SANGER: Inhibition of human NCI-H1792 cell growth in a cell viability assay.

[40] = test system: U-251; assay: cells; type: functional, cell-based; details: Homo sapiens;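 note: growth inhibition of human U-251 cells, read out through a cell viability assay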
Description: SANGER: Inhibition of human U251 cell growth in a cell viability assay.

[41] = test system: CAPAN-1; assay: cells; type: functional, cell-based; details: Homo sapiens;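 note: growth suppression of CAPAN-1 cells, read out by a cell viability assay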
Description: SANGER: Inhibition of human CAPAN-1 cell growth in a cell viability assay.

[42] = test system: NCI-H727; assay: cells; type: functional, cell-based; details: Homo sapiens;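 note: growth inhibition of human NCI-H727 cells, read out with a cell viability assay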
Description: SANGER: Inhibition of human NCI-H727 cell growth in a cell viability assay.

[43] = test system: RCM-1; assay: cells; type: functional, cell-based; details: Homo sapiens;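 note: growth inhibition of the RCM-1 line, determined with a cell viability readout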
Description: SANGER: Inhibition of human RCM-1 cell growth in a cell viability assay.

[44] = test system: REH; assay: cells; type: functional, cell-based; details: Homo sapiens;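 note: growth inhibition of REH cells determined with a cell viability read-out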
Description: SANGER: Inhibition of human REH cell growth in a cell viability assay.

[45] = test system: Detroit 562; assay: cells; type: functional, cell-based; details: Homo sapiens;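 note: growth inhibition of human Detroit 562 cells, read out by a cell viability assay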
Description: SANGER: Inhibition of human Detroit562 cell growth in a cell viability assay.

[46] = test system: U-698-M; assay: cells; type: functional, cell-based; details: Homo sapiens
Description: SANGER: Inhibition of human U-698-M cell growth in a cell viability assay.

[47] = test system: SIG-M5; assay: cells; type: functional, cell-based; details: Homo sapiens;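 note: cell viability assay read-out, measuring how strongly growth of cultured human SIG-M5 cells is inhibited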
Description: SANGER: Inhibition of human SIG-M5 cell growth in a cell viability assay.

[48] = test system: Ca-Ski; assay: cells; type: functional, cell-based; details: Homo sapiens;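 note: cell viability assay measuring inhibition of Ca-Ski cell growth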
Description: SANGER: Inhibition of human Ca-Ski cell growth in a cell viability assay.

[49] = test system: HCC1395; assay: cells; type: functional, cell-based; details: Homo sapiens;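 note: growth inhibition of HCC1395 cells, read out by a cell viability assay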
Description: SANGER: Inhibition of human HCC1395 cell growth in a cell viability assay.

[50] = test system: NCI-H1703; assay: cells; type: functional, cell-based; details: Homo sapiens;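 note: growth inhibition of NCI-H1703 cells, read out via a cell viability assay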
Description: SANGER: Inhibition of human NCI-H1703 cell growth in a cell viability assay.

[51] = test system: OVCAR-3; assay: cells; type: functional, cell-based; details: Homo sapiens;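 note: growth inhibition of human OVCAR-3 cells, determined by a cell viability assay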
Description: SANGER: Inhibition of human OVCAR-3 cell growth in a cell viability assay.

[52] = test system: NCI-H2196; assay: cells; type: functional, cell-based; details: Homo sapiens;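 note: cell viability assay used as the readout of growth inhibition in NCI-H2196 cells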
Description: SANGER: Inhibition of human NCI-H2196 cell growth in a cell viability assay.

[53] = test system: HCT-15; assay: cells; type: functional, cell-based; details: Homo sapiens;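 note: cell viability readout, IC50 reflecting suppression of HCT-15 cell growth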
Description: SANGER: Inhibition of human HCT-15 cell growth in a cell viability assay.

[54] = test system: SK-MM-2; assay: cells; type: functional, cell-based; details: Homo sapiens;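 note: growth inhibition of human SK-MM-2 cells, read out with a cell viability assay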
Description: SANGER: Inhibition of human SK-MM-2 cell growth in a cell viability assay.

[55] = test system: FTC-133; assay: cells; type: functional, cell-based; details: Homo sapiens
[56] = test system: CP50-MEL-B; assay: cells; type: functional, cell-based; details: Homo sapiens;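 note: growth inhibition of the human cell line, measured with a cell viability read-out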
Description: SANGER: Inhibition of human CP50-MEL-B cell growth in a cell viability assay.

[57] = test system: 8305C; assay: cells; type: functional, cell-based; details: Homo sapiens
Description: SANGER: Inhibition of human 8305C cell growth in a cell viability assay.

[58] = test system: LU-99A; assay: cells; type: functional, cell-based; details: Homo sapiens;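 note: growth inhibition of LU-99A cells, read out with a cell viability assay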
Description: SANGER: Inhibition of human LU-99A cell growth in a cell viability assay.

[59] = test system: NCI-H2122; assay: cells; type: functional, cell-based; details: Homo sapiens;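 note: growth inhibition of the cells, read out with a cell viability assay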
Description: SANGER: Inhibition of human NCI-H2122 cell growth in a cell viability assay.

[60] = test system: RPMI 8402; assay: SANGER: Inhibition of human RPMI-8402 cell growth in a cell viability assay.; type: functional, cell-based
[61] = test system: LU-165; assay: cells; type: functional, cell-based; details: Homo sapiens
Description: SANGER: Inhibition of human LU-165 cell growth in a cell viability assay.

[62] = test system: KP-N-YN; assay: cells; type: functional, cell-based; details: Homo sapiens;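 note: growth inhibition of KP-N-YN cells, read out with a cell viability assay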
Description: SANGER: Inhibition of human KP-N-YN cell growth in a cell viability assay.

[63] = test system: WSU-NHL; assay: cells; type: functional, cell-based; details: Homo sapiens;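 note: growth inhibition of human WSU-NHL cells, read out with a cell viability assay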
Description: SANGER: Inhibition of human WSU-NHL cell growth in a cell viability assay.

[64] = test system: COLO-680N; assay: cells; type: functional, cell-based; details: Homo sapiens;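 note: cell viability assay used to measure inhibition of COLO-680N cell growth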
Description: SANGER: Inhibition of human COLO-680N cell growth in a cell viability assay.

CCNC(=O)c1noc(-c2cc(C(C)C)c(O)cc2O)c1-c1ccc(CN2CCOCC2)cc1 [LUMINESPIB]
IC50 [1]: 16.4 nM | IC50 [2]: 29.4 nM | IC50 [3]: 49.3 nM | IC50 [4]: 50.5 nM | IC50 [5]: 42.4 nM | IC50 [6]: 27.1 nM | IC50 [7]: > 256 nM | IC50 [8]: 22.1 nM | IC50 [9]: > 256 nM | IC50 [10]: > 256 nM | IC50 [11]: 75.7 nM | IC50 [12]: 91.9 nM | IC50 [13]: 27.2 nM | IC50 [14]: 186 nM | IC50 [15]: 77.3 nM | IC50 [16]: 129 nM | IC50 [17]: 47.8 nM | IC50 [18]: > 256 nM | IC50 [19]: 10.3 nM | IC50 [20]: 22.1 nM | IC50 [21]: 28 nM | IC50 [22]: 177 nM | IC50 [23]: 29.6 nM | IC50 [24]: 240 nM | IC50 [25]: 25.6 nM | IC50 [26]: > 256 nM | IC50 [27]: 10.5 nM | IC50 [28]: > 256 nM | IC50 [29]: 3.35 nM | IC50 [30]: 41.7 nM | IC50 [31]: 71.6 nM | IC50 [32]: 77.2 nM | IC50 [33]: 89.9 nM | IC50 [34]: 152 nM | IC50 [35]: 17.6 nM | IC50 [36]: 19.2 nM | IC50 [37]: 8.14 nM | IC50 [38]: 12.9 nM | IC50 [39]: 45.8 nM | IC50 [40]: 47.6 nM | IC50 [41]: 71.4 nM | IC50 [42]: 10.3 nM | IC50 [43]: 157 nM | IC50 [44]: 20.6 nM | IC50 [45]: 38.7 nM | IC50 [46]: 73.8 nM | IC50 [47]: 4.89 nM | IC50 [48]: 37.8 nM | IC50 [49]: > 256 nM | IC50 [50]: 61.8 nM | IC50 [51]: 141 nM | IC50 [52]: 217 nM | IC50 [53]: 66 nM | IC50 [54]: 111 nM | IC50 [55]: > 256 nM | IC50 [56]: 83.7 nM | IC50 [57]: 30.7 nM | IC50 [58]: 72.9 nM | IC50 [59]: 13.8 nM | IC50 [60]: > 256 nM | IC50 [61]: 154 nM | IC50 [62]: > 256 nM | IC50 [63]: 73.3 nM | IC50 [64]: 44.1 nM

CC(O)(CS(=O)(=O)c1ccc(F)cc1)C(=O)Nc1ccc(C#N)c(C(F)(F)F)c1 (stereo not drawn) [BICALUTAMIDE]
IC50 [1]: > 1020 nM | IC50 [2]: > 1020 nM | IC50 [3]: > 1020 nM | IC50 [4]: > 1020 nM | IC50 [5]: > 1020 nM | IC50 [6]: > 1020 nM | IC50 [7]: > 1020 nM | IC50 [8]: > 1020 nM | IC50 [9]: > 1020 nM | IC50 [10]: > 1020 nM | IC50 [11]: > 1020 nM | IC50 [12]: > 1020 nM | IC50 [13]: > 1020 nM | IC50 [14]: > 1020 nM | IC50 [15]: > 1020 nM | IC50 [16]: > 1020 nM | IC50 [17]: > 1020 nM | IC50 [18]: > 1020 nM | IC50 [19]: > 1020 nM | IC50 [20]: > 1020 nM | IC50 [21]: > 1020 nM | IC50 [22]: > 1020 nM | IC50 [23]: > 1020 nM | IC50 [24]: > 1020 nM | IC50 [25]: > 1020 nM | IC50 [26]: > 1020 nM | IC50 [27]: > 1020 nM | IC50 [28]: > 1020 nM | IC50 [29]: > 1020 nM | IC50 [30]: > 1020 nM | IC50 [31]: > 1020 nM | IC50 [32]: > 1020 nM | IC50 [33]: > 1020 nM | IC50 [34]: > 1020 nM | IC50 [35]: > 1020 nM | IC50 [36]: > 1020 nM | IC50 [37]: > 1020 nM | IC50 [38]: > 1020 nM | IC50 [39]: > 1020 nM | IC50 [40]: > 1020 nM | IC50 [41]: > 1020 nM | IC50 [42]: > 1020 nM | IC50 [43]: > 1020 nM | IC50 [44]: > 1020 nM | IC50 [45]: > 1020 nM | IC50 [46]: > 1020 nM | IC50 [47]: > 1020 nM | IC50 [48]: > 1020 nM | IC50 [49]: > 1020 nM | IC50 [50]: > 1020 nM | IC50 [51]: > 1020 nM | IC50 [52]: > 1020 nM | IC50 [53]: > 1020 nM | IC50 [54]: > 1020 nM | IC50 [55]: > 1020 nM | IC50 [56]: > 1020 nM | IC50 [57]: > 1020 nM | IC50 [58]: > 1020 nM | IC50 [59]: > 1020 nM | IC50 [60]: > 1020 nM | IC50 [61]: > 1020 nM | IC50 [62]: > 1020 nM | IC50 [63]: > 1020 nM | IC50 [64]: > 1020 nM
